Data published in patent US20030149242A1, “Novel polypeptide” (Pfizer Inc., priority 1999, published 2003).

Assays:
[1] = test system: isolated human eosinophils; assay: Human eosinophil chemotaxis assay (Boyden chamber) with histamine receptor subtype-selective agonists; type: cell-based; conditions: in vitro, agonist in bottom wells, 45 minutes, FIG. 9
Protocol: (§1) Eosinophils were isolated from peripheral blood as previously described (Hansel, T T., De Vries I J., Iff T., Rihs S., Wandzilak M., Betz S., Blaser K. and Walker C. (1991). An improved immunomagnetic procedure for the isolation of highly purified human blood eosinophils. J. Imm. Meth. 145:105-10). Chemotaxis was measured using a 48-well Boyden chamber (Neuro Probe Inc., Cabin John, Md., USA). Agonists were diluted in RPMI media (BioWhittaker, Walkersville, Md., USA) containing 0.1% bovine serum albumin (BSA) (Gibco BRL, Gaithersburg, Md., USA) and added to the bottom wells of the chemotaxis chamber. A 5 µm PVP-free polycarbonate filter was used to separate the wells of the chamber (Neuro Probe Inc., Cabin John, Md., USA). Eosinophils were resuspended in RPMI/BSA media at a concentration of 2.5×10^6 cells per ml. 50 µl of this cell suspension were then added to the upper chamber. Chambers were incubated for 45 minutes in a 5% CO2-humidified atmosphere at 37° C. After the incubation period, the filters were removed, the top side was scraped to remove non-migrating cells, and the filters were stained with Diff-Quik stain (Dade Behring AG, Dudingen, Switzerland). The number of cells migrating (bottom of filter) were counted by light microscopy. The mean of three high-powered fields was then determined. The number of migrating cells was calculated by subtracting […]. All compounds were purchased from Sigma-RBI.
Experiments were performed to characterise the histamine receptor subtype involved in the eosinophil chemotactic response to histamine. Methodology was as detailed above. […] Eotaxin was included as a positive control for eosinophil chemotaxis.

[2] = test system: isolated human eosinophils; conditions: described by Raible et al. (1994); cited from earlier work
PFI-013 [3] = biological target: T1, PFI-013 (Homo sapiens, UniProt Q9H3N8); assay: FLIPR functional cell-based assay (intracellular calcium) in PFI-013-transfected HEK293 cells expressing mouse Gα15; parameters: expressed in transfected cells; host or cells: HEK293 cells expressing mouse Gα15, transient transfection; conditions: for activation of PFI-013 by histaminergic compounds: FIG. 8, rank order of potency N-α-methyl histamine > histamine > R-α-methyl histamine = histamine-1-methyl
T1 sequence (Q9H3N8 whole entry): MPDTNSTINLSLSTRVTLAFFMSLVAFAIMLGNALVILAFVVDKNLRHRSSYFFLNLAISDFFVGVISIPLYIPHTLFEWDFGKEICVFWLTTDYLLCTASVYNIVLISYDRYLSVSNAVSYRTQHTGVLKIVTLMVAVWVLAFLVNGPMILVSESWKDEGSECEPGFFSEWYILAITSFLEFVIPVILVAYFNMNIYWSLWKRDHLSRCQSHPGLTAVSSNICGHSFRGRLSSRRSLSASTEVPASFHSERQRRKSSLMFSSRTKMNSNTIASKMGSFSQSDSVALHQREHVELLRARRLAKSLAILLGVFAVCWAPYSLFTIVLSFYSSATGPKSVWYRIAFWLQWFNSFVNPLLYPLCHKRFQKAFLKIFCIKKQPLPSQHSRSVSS
Protocol: Fluorescence Imaging Plate Reader (FLIPR®) technology was employed as a means to detect activation of PFI-013 by histamine or histamine agonists in a cell-based assay.
5×10^6 Human Embryonic Kidney (HEK) 293 cells expressing the mouse Gα15 gene (from here on called ‘293 cells’), were transiently transfected with 7.5 μg of PFI-013 (contained within the pcDNA4HISmaxB (Invitrogen) plasmid) vector, or vector alone, using Lipofectamine Plus® reagent (Gibco BRL) as per the manufacturer's protocol. The PFI-013 cDNA had been cloned into pcDNA4HISmaxB using restriction sites KpnI and NotI to excise the PFI-013 cDNA from pcDNA3.1/V5-His-TOPO and to insert the cDNA into pcDNA4HISmaxB using standard molecular biology techniques (e.g. according to Sambrook, et al., eds. (1989) Molecular Cloning: A Laboratory Manual, Cold Spring Harbor Laboratory Press, New York, N.Y., USA) and using T4 DNA ligase to join the fragments; pcDNA4HISmaxB was used as it contains elements that up-regulate the level of gene transcription over standard pcDNA3.1 vectors). 24 hrs post-transfection, the cells were detached from the flask using Trypsin/EDTA solution (LTI) and seeded into a black sided, Poly-D-lysine-treated, 96-well plate (Becton Dickinson) at 5×10^4 cells/well density. The plates were left overnight to allow the cells to adhere to the bottom of the wells. The medium was removed from the cells and replaced with 100 μl warm (37° C.) dye loading solution (50 μg Fluo3 (Molecular probes) in 20 μl DMSO+20% pluronic acid in DMSO, added to 11 ml Dulbecco's Modified Eagles Medium containing 1×Probenecid (100×Probenecid—0.71 g Probenecid was dissolved in 5 ml 1M NaOH and 5 ml Dulbeccos' Phosphate Buffered Saline (PBS), per plate; Probenecid (Molecular Devices) inhibits activity of the anion transport protein, thus improving dye loading). The plates were then incubated for 1 hr at 37° C. Plates were subsequently washed with 250 μl of wash buffer per well (5 ml 100×Probenecid stock+495 ml PBS, pH 7.4) 4 times. The plates were returned to the 37° C./5% CO2 incubator for 30 mins prior to processing within the FLIPR® instrument. The FLIPR® processing involved reading the fluorescence for all samples for 2 minutes; during this time the fluorescence baseline was determined for 10 seconds. The desired amount of compound (i.e. histamine or histamine agonists) was then automatically transferred to the wells and the fluorescence was continuously monitored for the remainder of the time. All compounds were diluted in wash buffer.
Using methodology as described in detail above, the effect of histamine on the functional activation of PFI-013 was investigated.
Using methodology as described in detail above, the effect of histaminergic compounds on the functional activation of PFI-013 was investigated.
FIG. 8 depicts the action of various histaminergic compounds (columns 2 to 10) serially diluted from […] (rows A and B) down to 0.5 μM in duplicate (rows G and H), on PFI-013-transfected 293 cells (FIG. 8A) or vector-only transfected 293 cells (FIG. 8B). Remaining wells contained buffer only with no compound.

[4] = test system: isolated human eosinophils; assay: Inhibition of histamine-induced chemotaxis of IL-5-primed human eosinophils; type: cell-based; conditions: for IC50: Homo sapiens, Eosinophil, histamine 30 nM as agonist, antagonists at 10, 1 and 0.1 μM, preliminary results, FIG. 10C, read-out: IC50 for antagonising histamine-induced chemotaxis of human eosinophils; for reduction of the chemotactic response of isolated human eosinophils to histamine dihydrochloride: antagonists at a single concentration of 10 μM, IL-5-primed eosinophils, FIG. 10B
Protocol: as §1
Antagonist experiments were performed to further characterise the histamine receptor subtype involved in the eosinophil chemotactic response to histamine. […] Antagonists were used at a single concentration of 10 μM. Antagonists tested were: mepyramine maleate (histamine H1 antagonist), cimetidine (histamine H2 antagonist), thioperamide (histamine H3 antagonist) and clobenpropit (histamine H3 antagonist).
A further experiment was performed to determine the IC50 of both thioperamide and clobenpropit (histamine H3 antagonists) for inhibiting isolated human eosinophil in vitro chemotaxis. Methodology was as above, using thioperamide and clobenpropit at 10 μM, 1 μM and 0.1 μM concentrations (Histamine, as the agonist, was used at 30 nM).

PFI-013 [5] = biological target: T1, PFI-013; conditions: 3H-histamine 0.72-1500 nM; difference between PFI-013-transfected and mock-transfected CHO-K1 membranes; preliminary data, FIG. 6

Compound	chemotactic response of isolated human eosinophils [1]	activation of PFI-013 by histaminergic compounds (PFI-013 [3])	further results
CNC(=S)NCCCCc1cnc[nH]1 [Burimamide]	displayed no chemotactic activity	–	effect on intracellular Ca2+ production in isolated human eosinophils [2]: partial agonist effect
CN(C)CCCSC(=N)N [Dimaprit]	displayed no chemotactic activity	no activation of PFI-013 could be detected	–
CC(CCCCC(=O)Nc1ccc(C(F)(F)F)cc1)NCCc1cnc[nH]1.O=C(O)/C=C\C(=O)O.O=C(O)/C=C\C(=O)O (stereo not shown) [HTMT, HTMT dimaleate]	very weak chemotactic response only at the highest concentration tested (1 μM)	–	–
N=C(N)SCCc1cnc[nH]1 [Imetit]	displayed no chemotactic activity	no activation of PFI-013 could be detected	–
N[C@@H](Cc1c[nH]cn1)C(=O)O [L-histidine]	–	no activation of PFI-013 could be detected	–
CNCCc1cnc[nH]1 [N-α-methyl histamine]	–	activated	–
C[C@@H](N)Cc1c[nH]cn1 [R-α-methyl histamine]	–	activated	–
NC(=NCc1ccc(Cl)cc1)SCCCc1cnc[nH]1 [clobenpropit]	–	no activation of PFI-013 could be detected	IC50 [4]: 1.5 µM; reduction of the chemotactic response of isolated human eosinophils to histamine dihydrochloride [4]: greatest effect on the reduction of the chemotactic response
Cl.Cl.NCCc1c[nH]cn1 [histamine dihydrochloride]	induced a significant chemotactic response	–	–
Cn1cnc(CCN)c1 [histamine-1-methyl]	–	activated	–
NCCc1c[nH]cn1 [histamine]	–	activated	binding of histamine to PFI-013 (PFI-013 [5]): binds to PFI-013, albeit with relatively low affinity; activation of PFI-013 by histamine (transient increase in intracellular calcium) (PFI-013 [3]; at the 10 μM concentration, tested 10 μM serially diluted in log steps down to 10 pM, versus vector-only cells, FIG. 7): specific activation of PFI-013
COc1ccc2c(c1OC)C(=O)O[C@@H]2[C@H]1c2c(cc3c(c2OC)OCO3)CCN1C [noscapine]	–	no activation of PFI-013 could be detected	–
S=C(NC1CCCCC1)N1CCC(c2cnc[nH]2)CC1 [thioperamide]	–	–	IC50 [4]: 0.83 µM; reduction of the chemotactic response of isolated human eosinophils to histamine dihydrochloride [4]: greatest effect on the reduction of the chemotactic response
IL-5: interleukin-5, used to prime the eosinophils for chemotaxis studies	–	–	effect of IL-5 priming of eosinophils on the chemotactic response to histamine ([4]; IL-5 pretreatment of the eosinophils, FIG. 10A): enhance the chemotactic response to histamine
